Source: patent publication US11952344B2, “Heterocyclic compound and use thereof” (TAKEDA PHARMACEUTICAL COMPANY LIMITED, priority 2019, dated 2024)

biological target: T1, Human NMDA (NR1/NR2B) Receptor (Homo sapiens, UniProt Q13224); test: NR2B Ca2+ influx assay; type: cell-based; settings: 10 μM compound; HEK293 cells expressing GRIN1 and GRIN2B; glutamic acid/glycine-induced Ca2+ influx, Fluo-4 fluorescence; read-out: inhibitory rate (10 μM compound concentration)
T1 construct: host or cells: HEK293
From the text: Experimental Example 1 NR2B Ca^2+ Influx Assay
To confirm the “antagonistic action on an NMDA receptor containing the NR2B subunit” of the compound of the present invention, human embryonic kidney cell expressing the “NMDA receptor composed of four subunits including 2 sets of heterodimers of NR1 and NR2B”, specifically HEK293 cell expressing human glutamate ionotropic receptor NMDA type subunit 1 (GRIN1) and human glutamate ionotropic receptor NMDA type subunit 2B (GRIN2B), was used and the activation suppressive effect (inhibitory activity) on the receptors by the compound of the present invention was measured.
HEK293 cells that express GRIN1 and GRIN2B were purchased from ChanTest (Human NMDA (NR1/NR2B) Receptor-expressing, stable replicating cell line (HEK293) catalog No. CT6121).
As an index of the NMDA receptor activation, intracellular calcium ion (Ca^2+) influx caused by the binding of glycine and glutamic acid with NR1 and NR2B, respectively, was used.
HEK293 cells that express GRIN1 and GRIN2B were cultured in a cell culture flask in DMEM/F-12 (COSMO BIO, 10-092-CM) medium added with 10% FBS (fetal bovine serum, AusGene), 100 units/mL penicillin, 100 μg/mL streptomycin, 500 μg/mL neomycin, 100 μg/mL Zeocin (registered trade mark, Invitrogen), 5 μg/mL Blasticidin, in an incubator (37° C., 5% CO2).
The cells were detached from flask with trypsin the day before the assay, suspended in a seeding medium (DMEM (Invitrogen, 31053) added with 10% FBS, 100 units/mL penicillin, 100 μg/mL streptomycin) at 8×10^5 cells/mL, seeded by 25 μL/well in a 384-well plate (Falcon, 356663) at 20000 cells/well, and cultured overnight in an incubator. On the day of the assay, tetracycline (Wako Pure Chemical Industries, Ltd., 209-16561) was diluted with the seeding medium at 2 μg/mL, added at 25 μL/well to the plate seeded with the cells, and cultured for 2 hr in an incubator. Thereafter, the medium was removed, and the cells were washed with 50 μL/well assay buffer (137 mM NaCl, 4 mM KCl, 1.8 mM CaCl2, 10 mM HEPES (pH 7.2), 10 mM Glucose, 0.1% BSA). Then, a loading buffer (assay buffer added with 2.5 μM Fluo-4AM, 2 mM Amaranth, 1 mM Tartrazine) was added at 25 μL/well, and incubation was performed in the incubator for 30 min, and at room temperature for 15 min. A solution (25 μL/well) of the Example compound diluted with the above-mentioned assay buffer at 30 μM (final concentration 10 μM) was added, and the cells were stood for 15 min at room temperature. Using FDSS7000EX/μCELL (Hamamatsu Photonics K.K.), 25 μL/well of an assay buffer containing 30 μM glutamic acid, 30 μM glycine was added, and the fluorescence signal at wavelength of Excitation 480 nm, Emission 540 nm was measured every 3 seconds for 5 min. The inhibitory activity was calculated as a relative activity value (inhibitory rate) that inhibits 100% of the cumulative value of the fluorescence value of a well added with an assay buffer free of glutamic acid, glycine, relative to the cumulative value of the fluorescence value of each well.

T1 sequence (Q13224 27-1484, other chains not shown): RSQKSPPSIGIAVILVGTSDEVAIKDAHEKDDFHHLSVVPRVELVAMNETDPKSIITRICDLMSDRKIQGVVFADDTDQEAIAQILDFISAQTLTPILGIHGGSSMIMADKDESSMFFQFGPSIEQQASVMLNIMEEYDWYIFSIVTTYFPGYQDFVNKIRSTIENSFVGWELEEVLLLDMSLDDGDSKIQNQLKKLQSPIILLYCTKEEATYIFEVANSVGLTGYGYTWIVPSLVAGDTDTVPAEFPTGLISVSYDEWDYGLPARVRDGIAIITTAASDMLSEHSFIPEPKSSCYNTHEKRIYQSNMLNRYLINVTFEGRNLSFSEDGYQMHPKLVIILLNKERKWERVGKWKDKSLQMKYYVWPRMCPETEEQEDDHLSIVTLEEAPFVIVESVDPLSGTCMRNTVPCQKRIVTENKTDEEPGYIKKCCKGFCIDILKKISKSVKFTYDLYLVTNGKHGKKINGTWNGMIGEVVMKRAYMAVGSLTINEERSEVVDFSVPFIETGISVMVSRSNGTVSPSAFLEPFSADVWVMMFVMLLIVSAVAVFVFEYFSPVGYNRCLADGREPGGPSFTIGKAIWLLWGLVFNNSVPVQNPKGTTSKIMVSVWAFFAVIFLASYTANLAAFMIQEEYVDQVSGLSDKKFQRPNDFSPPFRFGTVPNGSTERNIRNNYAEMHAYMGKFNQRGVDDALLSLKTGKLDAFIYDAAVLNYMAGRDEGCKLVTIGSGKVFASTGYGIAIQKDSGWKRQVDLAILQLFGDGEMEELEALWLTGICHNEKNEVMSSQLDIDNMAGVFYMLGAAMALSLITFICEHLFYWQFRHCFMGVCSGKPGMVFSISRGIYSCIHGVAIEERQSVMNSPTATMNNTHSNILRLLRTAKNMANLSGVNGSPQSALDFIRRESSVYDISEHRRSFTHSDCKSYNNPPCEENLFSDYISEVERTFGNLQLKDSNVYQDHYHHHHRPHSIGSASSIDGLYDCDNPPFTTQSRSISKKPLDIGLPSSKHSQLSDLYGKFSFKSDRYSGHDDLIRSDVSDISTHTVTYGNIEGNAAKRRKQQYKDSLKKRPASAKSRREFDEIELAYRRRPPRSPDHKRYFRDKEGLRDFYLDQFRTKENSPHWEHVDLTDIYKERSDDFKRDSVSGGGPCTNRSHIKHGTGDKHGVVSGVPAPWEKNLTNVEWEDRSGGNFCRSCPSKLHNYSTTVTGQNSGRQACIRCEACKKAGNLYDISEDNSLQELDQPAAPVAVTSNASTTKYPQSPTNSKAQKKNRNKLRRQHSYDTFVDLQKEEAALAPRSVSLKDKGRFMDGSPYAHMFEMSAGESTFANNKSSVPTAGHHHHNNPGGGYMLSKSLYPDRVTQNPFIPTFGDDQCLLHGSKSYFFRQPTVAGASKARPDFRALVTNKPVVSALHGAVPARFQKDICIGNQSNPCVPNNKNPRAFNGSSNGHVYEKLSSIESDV

Row | SMILES | inhibition at 10 µM
1 | COc1cncc(CNC(=O)c2ccc(OC(F)(F)F)cc2)c1 [Example 1, N-[(5-methoxypyridin-3-yl)methyl]-4-(trifluoromethoxy)benzamide] | 95%
2 | O=C(NCc1cncc(Cl)c1)c1ccc(OC(F)(F)F)cc1 [Example 2, N-[(5-chloropyridin-3-yl)methyl]-4-(trifluoromethoxy)benzamide] | 93%
3 | O=C(NCc1cncc(Br)c1)c1ccc(OC(F)(F)F)cc1 [Example 3, N-[(5-bromopyridin-3-yl)methyl]-4-(trifluoromethoxy)benzamide] | 95%
4 | Cc1ccncc1CNC(=O)c1ccc(OC(F)(F)F)cc1 [Example 4, N-[(4-methylpyridin-3-yl)methyl]-4-(trifluoromethoxy)benzamide] | 96%
5 | COc1ccncc1CNC(=O)c1ccc(OC(F)(F)F)cc1 [Example 7, N-[(4-methoxypyridin-3-yl)methyl]-4-(trifluoromethoxy)benzamide] | 91%
6 | COc1ccncc1CNC(=O)c1ccc(C(F)(F)F)c(F)c1 [Example 9, 3-fluoro-N-[(4-methoxypyridin-3-yl)methyl]-4-(trifluoromethyl)benzamide] | 90%
7 | CCOc1ccncc1CNC(=O)c1cnc(OC(F)F)c(F)c1 [Example 10, 6-(difluoromethoxy)-N-[(4-ethoxypyridin-3-yl)methyl]-5-fluoropyridine-3-carboxamide] | 96%
8 | CCOc1ccncc1CNC(=O)c1ccc(OC(F)F)c(F)c1 [Example 11, 4-(difluoromethoxy)-N-[(4-ethoxypyridin-3-yl)methyl]-3-fluorobenzamide] | 95%
9 | O=C(NCc1cnccc1OC1CC1)c1cnc(OC(F)F)c(F)c1 [Example 14, N-{[4-(cyclopropyloxy)-pyridin-3-yl]methyl}-6-(difluoromethoxy)-5-fluoropyridine-3-carboxamide] | 96%
10 | O=C(NCc1cnccc1C1CC1)c1cnc(OC(F)F)c(F)c1 [Example 15, N-[(4-cyclopropylpyridin-3-yl)methyl]-6-(difluoromethoxy)-5-fluoropyridine-3-carboxamide] | 96%
11 | O=C(NCc1cnccc1C(F)(F)F)c1cnc(OC(F)F)c(F)c1 [Example 16, 6-(difluoromethoxy)-5-fluoro-N-{[4-(trifluoromethyl)pyridin-3-yl]methyl}pyridine-3-carboxamide] | 94%
12 | COc1ccncc1CNC(=O)c1cnc(OC(F)F)c(Cl)c1 [Example 17, 5-chloro-6-(difluoromethoxy)-N-[(4-methoxypyridin-3-yl)methyl]pyridine-3-carboxamide] | 98%
13 | Cc1ccncc1CNC(=O)c1cnc(OC(F)F)c(F)c1 [Example 18, 6-(difluoromethoxy)-5-fluoro-N-[(4-methylpyridin-3-yl)methyl]pyridine-3-carboxamide] | 96%
14 | COc1ncncc1CNC(=O)c1ccc(OC(F)F)cc1 [Example 25, 4-(difluoromethoxy)-N-[(4-methoxypyrimidin-5-yl)methyl]benzamide] | 88%
15 | Cc1ccncc1CNC(=O)c1cnc(OC(F)F)c(Cl)c1 [Example 27, 5-chloro-6-(difluoromethoxy)-N-[(4-methylpyridin-3-yl)methyl]pyridine-3-carboxamide] | 95%

Other lines, results leading:

Row | inhibition at 10 µM | SMILES
16 | 94% | COc1ccncc1CNC(=O)c1cnc(OC(F)F)c(F)c1 [Example 5, 6-(difluoromethoxy)-5-fluoro-N-[(4-methoxypyridin-3-yl)methyl]pyridine-3-carboxamide]
17 | 95% | COc1c(F)cncc1CNC(=O)c1cnc(OC(F)F)c(F)c1 [Example 6, 6-(difluoromethoxy)-5-fluoro-N-[(5-fluoro-4-methoxypyridin-3-yl)methyl]pyridine-3-carboxamide]
18 | 95% | COc1ccncc1CNC(=O)c1ccc(OC(F)(F)F)c(F)c1 [Example 8, 3-fluoro-N-[(4-methoxypyridin-3-yl)methyl]-4-(trifluoromethoxy)-benzamide]
19 | 93% | COc1ncncc1CNC(=O)c1ccc(OC(F)F)c(F)c1 [Example 13, 4-(difluoromethoxy)-3-fluoro-N-[(4-methoxypyrimidin-5-yl)methyl]benzamide]
20 | 91% | O=C(NCc1cncnc1OC1CC1)c1cnc(OC(F)F)c(F)c1 [Example 19, N-{[4-(cyclopropyloxy)pyrimidin-5-yl]methyl}-6-(difluoromethoxy)-5-fluoropyridine-3-carboxamide]
21 | 94% | CC(C)Oc1ncncc1CNC(=O)c1cnc(OC(F)F)c(F)c1 [Example 20, 6-(difluoromethoxy)-5-fluoro-N-({4-[(propan-2-yl)oxy]pyrimidin-5-yl}methyl)pyridine-3-carboxamide]
22 | 93% | COc1ncncc1CNC(=O)c1cnc(OC(F)F)c(Cl)c1 [Example 21, 5-chloro-6-(difluoromethoxy)-N-[(4-methoxypyrimidin-5-yl)methyl]pyridine-3-carboxamide]
23 | 95% | COc1ncncc1CNC(=O)c1ccc(OC(F)(F)F)c(F)c1 [Example 22, 3-fluoro-N-[(4-methoxypyrimidin-5-yl)methyl]-4-(trifluoromethoxy)benzamide]
24 | 95% | O=C(NCc1cncnc1C1CC1)c1cnc(OC(F)F)c(F)c1 [Example 23, N-[(4-cyclopropylpyrimidin-5-yl)methyl]-6-(difluoromethoxy)-5-fluoropyridine-3-carboxamide]
25 | 95% | CCOc1ncncc1CNC(=O)c1cnc(OC(F)F)c(F)c1 [Example 24, 6-(difluoromethoxy)-N-[(4-ethoxypyrimidin-5-yl)methyl]-5-fluoropyridine-3-carboxamide]
26 | 93% | COc1ncncc1CNC(=O)c1ccc(OC(F)(F)F)cc1 [Example 26, N-[(4-methoxypyrimidin-5-yl)methyl]-4-(trifluoromethoxy)-benzamide]
27 | 87% | CCc1ncncc1CNC(=O)c1cnc(OC(F)F)c(F)c1 [Example 28, 6-(difluoromethoxy)-N-[(4-ethylpyrimidin-5-yl)methyl]-5-fluoropyridine-3-carboxamide]
28 | 92% | CC(F)(F)c1ncncc1CNC(=O)c1cnc(OC(F)F)c(F)c1 [Example 29, N-{[4-(1,1-difluoroethyl)-pyrimidin-5-yl]methyl}-6-(difluoromethoxy)-5-fluoropyridine-3-carboxamide]
29 | 92% | Cc1ncncc1CNC(=O)c1ccc(OC(F)(F)F)c(F)c1 [Example 30, 3-fluoro-N-[(4-methylpyrimidin-5-yl)methyl]-4-(trifluoromethoxy)-benzamide]
30 | 68% | Cc1ncncc1CNC(=O)c1cnc(OC(F)F)c(F)c1 [Example 31, 6-(difluoromethoxy)-5-fluoro-N-[(4-methylpyrimidin-5-yl)methyl]pyridine-3-carboxamide]
31 | 96% | O=C(NCc1cncnc1OC1CC(F)(F)C1)c1cnc(OC(F)F)c(F)c1 [Example 32, N-({4-[(3,3-difluorocyclobutyl)-oxy]pyrimidin-5-yl}methyl)-6-(difluoromethoxy)-5-fluoropyridine-3-carboxamide]
32 | 94% | COc1ncncc1CNC(=O)c1cnc(OC(F)(F)F)c(F)c1 [Example 33, 5-fluoro-N-[(4-methoxypyrimidin-5-yl)methyl]-6-(trifluoromethoxy)pyridine-3-carboxamide]
33 | 97% | COc1ccncc1CNC(=O)c1cnc(OC(F)(F)F)c(F)c1 [Example 34, 5-fluoro-N-[(4-methoxypyridin-3-yl)methyl]-6-(trifluoromethoxy)pyridine-3-carboxamide]
34 | 96% | Cc1ccncc1CNC(=O)c1cnc(OC(F)(F)F)c(F)c1 [Example 35, 5-fluoro-N-[(4-methylpyridin-3-yl)methyl]-6-(trifluoromethoxy)-pyridine-3-carboxamide]
